# Data: patent US7030251B2, “Modifications of the trometamol salt of R-thioctic acid as well as a process for their production” (Viatris GmbH & Co KG, priority 2001, dated 2006)
# Counter-ions that a name gives are not always drawn.
# Assay: Angle of repose α as a measure of flowability and pourability
# Assay type: physicochemical
# Conditions: determined according to R. Voigt, Lehrbuch der pharmazeutischen Technologie, 3rd Edition 1979, p. 165
# From the text: The angle of repose α of the modifications as a measure of the flowability and pourability is likewise different: [table]
row,Structure (SMILES),Angle of Repose α
1,"O=C(O)CCCC[C@@H]1CCSS1 [Modification A, trometamol salt of R-thioctic acid]",46°
2,"O=C(O)CCCC[C@@H]1CCSS1 [Modification B, trometamol salt of R-thioctic acid]",32°
3,"O=C(O)CCCC[C@@H]1CCSS1 [Modification mixture A/B = 1:1, trometamol salt of R-thioctic acid]",34°
